{"source": "patent US20070249677A1", "about": "“Treatment of Osteoarthritis and Dosing Regimen for Arzoxifene” (priority 2004, published 2007)", "key": {"[1]": {"tested_on": "Hartley albino guinea pigs (spontaneous cartilage degeneration / osteoarthritis)", "experiment": "Guinea Pig Spontaneous Osteoarthritis Study", "assay_type": "in vivo", "description": "Hartley albino guinea pigs undergo spontaneous cartilage degeneration, and they have been used as a convenient small animal model system to study osteoarthritis (OA) and have potential physiologic relevance to the OA that spontaneously develops in humans. Disease-related morphologic changes observed in the guinea pigs are similar to the histopathologic alternations in the joints of humans with OA. Other significant similarities between the OA in Hartley guinea pigs and that in humans are also known. Huebner, Collagenase 1 and Collagenase 3 Expression in a Guinea Pig Model of Osteoarthritis, 41 Arthritis Rheum. 877-890 no. 5(May 1998). The Hartley guinea pig spontaneous model can be used to study the effects of Arzoxifene on OA.\nHartley strain guinea pigs, approximately three month old males, are used for the study. (In one study, 5.5 month old males were used, as indicated by FIG. 8). The Hartley albino guinea pigs are provided ad lib access to food (Ca 1.1%, p 0.6%, Vitamin D 3400 IU/kg) and water. The guinea pigs are dosed subcutaneously with Arzoxifene at 0.03, 0.1, 0.3, and/or 0.5 mg/kg/d for about two to four months. The study generally includes 15 guinea pigs per treatment group, except for the baseline, which generally includes 10 guinea pigs. Urine and serum are to be collected at 0, 2, 4, 6, 12, and 16 weeks for biomarker evaluation. The right knee joints are harvested for histology and the left knee joint for surface osteoarthritis scoring.\nThe effects observed on OA lesion areas by quantitative image analyses are illustrated by the graph in FIG. 3. The Zones of the lesion in the knee joint are illustrated by FIG. 1. Osteoarthritis changes are further evaluated by histologically quantitative analyses on paraffin embedded sections. The severities of joint damage are assessed for the depth of chondrocyte lesion and loss of proteoglycan on a score 0-5 for increasing severity on each third of the cartilage surface (Animla molde of osteoarthritis, A. M. Bendele (J Musculoskel Neuron Interact 2001: 1: 363-376)). Osteophyte development also evaluated by measuring the size."}, "[2]": {"tested_on": "ovariectomized Sprague-Dawley rats", "experiment": "Intermittent Dosing Analysis of Arzoxifene in Ovariectomized Rats (Prevention Model), femur QCT", "assay_type": "in vivo, rat", "conditions": "Ovx rats, 1 mg/kg oral", "description": "Arzoxifene will be administered using several different dosing intervals for 5 weeks to 6 month-old rats, one week after ovariectomy.\nLive phase: A total of about 78 female Sprague-Dawley rats (Harlan Sprague Dawley Inc) are used for this study design. 72 of the rats are ovariectomized (Ovx) at 6 months of age and 6 rats are used as sham-ovariectomized controls. Rats were maintained on a 12 hour light/dark cycle at 22° C. with ad lib access to food (TD 89222 with 0.5% Ca and 0.4% P, Teklad, Madison, Wis.) and water. Sham and Ovx controls are orally administered a vehicle of 20% hydroxy propyl-β-cyclodextrin (Aldrich Chemical Co). Arzoxifene (1 mg/kg) treated rats are dosed daily, every other day (QOD), every third day (Q3D), weekly on Monday (QW), or twice a week on Monday and Friday (M/F), as indicated. Each group contains 6 animals/grp and the treatment duration is about 5 weeks.\nAnalyses: Intact femora are removed and cleaned of soft-tissue and preserved in 50% ethanol/saline at 4° C. Femora are centered with respect to the QCT gantry (Research M, Stratec). A coronal scout scan of the specimen is generated first in 2 Dimension (2D) and then femora are scanned to measure bone mineral density (BMD, mg/cc), bone mineral content (BMC, mg), and cross-sectional area (mm2)."}, "[3]": {"tested_on": "postmenopausal women with osteopenia", "experiment": "OA biomarkers on a subset of samples from the Phase 2 osteopenia study", "assay_type": "in vivo, human", "conditions": "no selection for OA", "description": "A Phase 2, multicenter, randomized, double-blind, placebo- and raloxifene-controlled study of arzoxifene enrolled 219 postmenopausal women with osteopenia (defined as bone mineral density [BMD] t-score at the lumbar spine and/or femoral neck >−2.5 and ≦−1). The study assessed the effects of arzoxifene compared with raloxifene HCl (60 mg/day) and placebo on biochemical markers of bone metabolism, cardiovascular disease risk markers, and on overall safety.\nCTXII was not evaluated as the assay is validated for urine specimens, which were not available."}, "[4]": {"experiment": "Half life of arzoxifene in human patients", "assay_type": "in vivo"}, "[5]": {"experiment": "Half life of arzoxifene in laboratory animals", "assay_type": "in vivo"}}, "data": [{"smiles": "COc1ccc(-c2sc3cc(O)ccc3c2Oc2ccc(OCCN3CCCCC3)cc2)cc1", "note": "[arzoxifene]", "values": [{"measurement": "OA progression based on OA surface area and osteophyte development", "setting": "[1]; 0.5 mg/kg/d subcutaneous, one study (FIG. 8, 5.5 month old males)", "result": "did not have a statistical effect on OA progression"}, {"measurement": "effect on preventing or slowing the progression of OA", "setting": "[1]; Hartley guinea pigs, subcutaneous, about two to four months, OA lesion areas by image analysis (FIG. 3)", "result": "positive effect on preventing or slowing the progression of OA"}, {"measurement": "OA progress: OA surface area and osteophyte development", "setting": "[1]; lower doses tested (0.03, 0.1, 0.3 mg/kg/d subcutaneous), FIGS. 4-7", "result": "favorable effect on preventing or delaying the OA progress"}, {"measurement": "loss of BMD, distal femur metaphysis by QCT", "setting": "[2]; daily, about 5 weeks (FIG. 9)", "result": "prevented"}, {"measurement": "loss of BMD, distal femur metaphysis by QCT", "setting": "[2]; every other day (QOD), about 5 weeks (FIG. 9)", "result": "prevented"}, {"measurement": "loss of BMD, distal femur metaphysis by QCT", "setting": "[2]; every third day (Q3D), about 5 weeks (FIG. 9)", "result": "prevented"}, {"measurement": "loss of BMD, distal femur metaphysis by QCT", "setting": "[2]; twice a week Monday and Friday (M/F), about 5 weeks (FIG. 9)", "result": "prevented"}, {"measurement": "loss of BMD, distal femur metaphysis by QCT", "setting": "[2]; weekly on Monday (QW), about 5 weeks, QW BMD intermediate between Ovx and Sham and less than Sham (FIG. 9)", "result": "only partially efficacious"}, {"measurement": "COMP biomarker difference between placebo and arzoxifene", "setting": "[3]", "result": "modest but significant biomarker differences"}, {"measurement": "human cartilage glycoprotein-39 (YKL-40) biomarker difference between placebo and arzoxifene", "setting": "[3]", "result": "modest but significant biomarker differences"}, {"measurement": "half life", "setting": "[4]", "result": "longer than one day"}, {"measurement": "half life", "setting": "[5]", "result": "consistent with a daily dosing regimen"}]}]}
